# Results reported in ChEMBL document CHEMBL1201862, “PubChem BioAssay data set” (2004).
# Activity calls are given as the source filed them.
# Key:
# [1] = target: T1, Alkaline phosphatase, tissue-nonspecific isozyme (Homo sapiens, UniProt P05186); test: TNAP enzyme inhibition by screening hits, dose response, selectivity assay for mouse IAP inhibitor project, biochemical, human TNAP, uHTS hits (AID 488906); type: functional
# T1 sequence (P05186 whole entry): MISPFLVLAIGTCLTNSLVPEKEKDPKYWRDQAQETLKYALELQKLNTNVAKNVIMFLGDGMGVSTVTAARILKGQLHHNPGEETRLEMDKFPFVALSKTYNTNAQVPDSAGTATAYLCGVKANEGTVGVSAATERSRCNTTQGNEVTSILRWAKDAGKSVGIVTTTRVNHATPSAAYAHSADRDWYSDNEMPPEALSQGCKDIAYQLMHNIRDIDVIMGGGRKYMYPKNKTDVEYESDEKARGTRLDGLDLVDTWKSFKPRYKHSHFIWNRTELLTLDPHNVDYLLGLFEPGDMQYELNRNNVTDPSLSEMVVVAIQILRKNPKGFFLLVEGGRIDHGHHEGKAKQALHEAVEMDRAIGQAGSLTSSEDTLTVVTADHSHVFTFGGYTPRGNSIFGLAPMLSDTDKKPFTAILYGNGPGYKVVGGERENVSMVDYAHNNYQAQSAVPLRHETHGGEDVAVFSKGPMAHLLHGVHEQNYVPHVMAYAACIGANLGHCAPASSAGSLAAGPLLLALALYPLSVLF
# [2] = target: T2, Intestinal-type alkaline phosphatase (Homo sapiens, UniProt P09923); test: inhibition of human intestinal alkaline phosphatase – biochemical, dose response (AID 488876); type: functional
# T2 sequence (P09923 whole entry): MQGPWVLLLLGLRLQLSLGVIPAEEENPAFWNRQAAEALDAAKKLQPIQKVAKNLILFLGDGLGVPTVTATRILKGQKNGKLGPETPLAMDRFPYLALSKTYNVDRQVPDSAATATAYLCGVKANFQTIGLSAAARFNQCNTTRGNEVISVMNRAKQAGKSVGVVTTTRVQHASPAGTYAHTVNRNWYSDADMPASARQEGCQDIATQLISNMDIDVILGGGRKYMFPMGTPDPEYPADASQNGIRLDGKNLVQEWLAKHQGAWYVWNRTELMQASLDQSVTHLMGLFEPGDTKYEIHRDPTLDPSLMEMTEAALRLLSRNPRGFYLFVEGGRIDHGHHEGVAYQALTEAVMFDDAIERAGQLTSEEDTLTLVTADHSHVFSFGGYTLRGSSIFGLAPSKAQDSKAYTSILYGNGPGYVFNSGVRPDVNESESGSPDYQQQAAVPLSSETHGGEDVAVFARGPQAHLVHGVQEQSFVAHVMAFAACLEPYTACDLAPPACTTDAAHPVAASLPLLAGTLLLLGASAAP
# [3] = target: Intestinal-type alkaline phosphatase (Mus musculus, UniProt P24822); test: PubChem AID 488785; type: functional
# Sequence of Intestinal-type alkaline phosphatase (Mus musculus, UniProt P24822) (P24822 whole entry): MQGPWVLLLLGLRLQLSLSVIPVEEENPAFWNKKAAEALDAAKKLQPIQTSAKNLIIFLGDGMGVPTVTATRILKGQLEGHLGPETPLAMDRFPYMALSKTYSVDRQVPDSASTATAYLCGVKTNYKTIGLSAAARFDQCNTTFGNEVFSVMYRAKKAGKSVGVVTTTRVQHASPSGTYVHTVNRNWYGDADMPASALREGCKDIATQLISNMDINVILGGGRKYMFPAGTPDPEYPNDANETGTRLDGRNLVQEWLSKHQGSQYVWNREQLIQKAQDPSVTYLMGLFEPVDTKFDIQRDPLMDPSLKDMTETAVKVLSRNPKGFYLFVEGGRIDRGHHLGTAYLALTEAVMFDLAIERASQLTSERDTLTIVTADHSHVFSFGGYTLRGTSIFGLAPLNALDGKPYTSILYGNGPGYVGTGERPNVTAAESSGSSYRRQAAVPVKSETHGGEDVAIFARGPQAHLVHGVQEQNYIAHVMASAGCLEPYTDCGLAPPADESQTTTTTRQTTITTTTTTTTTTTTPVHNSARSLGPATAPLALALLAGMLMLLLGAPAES
# [4] = target: T2, Intestinal-type alkaline phosphatase; test: Dose Response confirmation of uHTS hits from a small molecule inhibitors of human intestinal alkaline phosphatase via a luminescent assay. [Related pubchem assays (depositor defined):AID2544, AID2574]; type: functional
# [5] = Counterscreen for AddAB inhibitors: absorbance-based bacterial cell-based high throughput dose response assay for inhibitors of bacterial viability. [Related pubchem assays (depositor defined):AID435030, AID449728, AID449731, AID488942, AID488955, AID488956]; type: functional
# [6] = target: Exodeoxyribonuclease V (Escherichia coli (strain K12), UniProt P04993+P07648+P08394); test: E. coli RecBCD inhibitors, dose response, counter-screen for AddAB inhibitor project, absorbance, V66 E. coli, mutant T4 phage (AID 492957); type: functional, cell-based, Escherichia coli str. K-12 substr. MG1655
# Sequence of Exodeoxyribonuclease V (P04993 whole entry): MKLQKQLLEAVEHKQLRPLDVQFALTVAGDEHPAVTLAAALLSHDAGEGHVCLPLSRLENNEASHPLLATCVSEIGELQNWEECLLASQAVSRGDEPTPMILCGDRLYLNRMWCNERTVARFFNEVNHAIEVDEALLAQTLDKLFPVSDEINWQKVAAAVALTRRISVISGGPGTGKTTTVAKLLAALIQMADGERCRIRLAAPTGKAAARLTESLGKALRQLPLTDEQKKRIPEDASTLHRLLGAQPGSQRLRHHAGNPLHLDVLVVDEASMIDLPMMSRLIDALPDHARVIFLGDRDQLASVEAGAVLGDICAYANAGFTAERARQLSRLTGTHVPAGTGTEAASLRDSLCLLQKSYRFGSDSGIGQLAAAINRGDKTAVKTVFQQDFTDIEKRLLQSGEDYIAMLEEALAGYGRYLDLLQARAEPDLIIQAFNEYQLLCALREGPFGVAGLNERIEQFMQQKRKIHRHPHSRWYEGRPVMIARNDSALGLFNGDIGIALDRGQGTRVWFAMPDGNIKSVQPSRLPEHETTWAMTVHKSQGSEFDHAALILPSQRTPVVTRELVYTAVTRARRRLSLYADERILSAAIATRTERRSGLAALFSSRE
# Sequence of Exodeoxyribonuclease V (P07648 whole entry): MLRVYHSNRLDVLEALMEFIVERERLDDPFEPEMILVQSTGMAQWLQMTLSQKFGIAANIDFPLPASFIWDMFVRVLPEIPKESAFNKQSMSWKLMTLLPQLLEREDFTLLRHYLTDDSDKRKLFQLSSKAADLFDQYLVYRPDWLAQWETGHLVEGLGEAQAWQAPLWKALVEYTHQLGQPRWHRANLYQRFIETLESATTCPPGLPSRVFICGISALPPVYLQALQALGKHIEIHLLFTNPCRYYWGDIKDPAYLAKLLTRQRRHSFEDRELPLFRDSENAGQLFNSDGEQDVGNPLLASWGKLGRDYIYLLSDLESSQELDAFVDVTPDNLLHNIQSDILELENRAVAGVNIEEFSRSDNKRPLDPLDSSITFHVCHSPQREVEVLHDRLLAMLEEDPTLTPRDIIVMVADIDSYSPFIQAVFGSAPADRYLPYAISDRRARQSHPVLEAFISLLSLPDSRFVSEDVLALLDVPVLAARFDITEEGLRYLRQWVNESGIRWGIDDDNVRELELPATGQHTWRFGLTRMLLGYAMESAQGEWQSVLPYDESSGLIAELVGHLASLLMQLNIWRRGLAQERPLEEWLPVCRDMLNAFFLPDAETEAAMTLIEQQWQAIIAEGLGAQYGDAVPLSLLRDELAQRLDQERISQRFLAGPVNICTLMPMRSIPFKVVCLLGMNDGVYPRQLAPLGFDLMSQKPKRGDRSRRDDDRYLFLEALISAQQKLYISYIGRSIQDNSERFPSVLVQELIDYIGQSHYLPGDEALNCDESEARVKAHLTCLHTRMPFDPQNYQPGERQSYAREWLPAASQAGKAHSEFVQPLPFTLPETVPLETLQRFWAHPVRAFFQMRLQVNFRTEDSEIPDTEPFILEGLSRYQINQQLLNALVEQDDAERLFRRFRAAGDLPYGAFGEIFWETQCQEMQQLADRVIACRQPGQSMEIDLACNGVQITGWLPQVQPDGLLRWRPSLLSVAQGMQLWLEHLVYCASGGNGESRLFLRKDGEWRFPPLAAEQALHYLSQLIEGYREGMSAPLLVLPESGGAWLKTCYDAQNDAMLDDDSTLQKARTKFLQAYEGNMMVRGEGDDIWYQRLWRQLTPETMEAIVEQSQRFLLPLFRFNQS
# Sequence of Exodeoxyribonuclease V (P08394 whole entry): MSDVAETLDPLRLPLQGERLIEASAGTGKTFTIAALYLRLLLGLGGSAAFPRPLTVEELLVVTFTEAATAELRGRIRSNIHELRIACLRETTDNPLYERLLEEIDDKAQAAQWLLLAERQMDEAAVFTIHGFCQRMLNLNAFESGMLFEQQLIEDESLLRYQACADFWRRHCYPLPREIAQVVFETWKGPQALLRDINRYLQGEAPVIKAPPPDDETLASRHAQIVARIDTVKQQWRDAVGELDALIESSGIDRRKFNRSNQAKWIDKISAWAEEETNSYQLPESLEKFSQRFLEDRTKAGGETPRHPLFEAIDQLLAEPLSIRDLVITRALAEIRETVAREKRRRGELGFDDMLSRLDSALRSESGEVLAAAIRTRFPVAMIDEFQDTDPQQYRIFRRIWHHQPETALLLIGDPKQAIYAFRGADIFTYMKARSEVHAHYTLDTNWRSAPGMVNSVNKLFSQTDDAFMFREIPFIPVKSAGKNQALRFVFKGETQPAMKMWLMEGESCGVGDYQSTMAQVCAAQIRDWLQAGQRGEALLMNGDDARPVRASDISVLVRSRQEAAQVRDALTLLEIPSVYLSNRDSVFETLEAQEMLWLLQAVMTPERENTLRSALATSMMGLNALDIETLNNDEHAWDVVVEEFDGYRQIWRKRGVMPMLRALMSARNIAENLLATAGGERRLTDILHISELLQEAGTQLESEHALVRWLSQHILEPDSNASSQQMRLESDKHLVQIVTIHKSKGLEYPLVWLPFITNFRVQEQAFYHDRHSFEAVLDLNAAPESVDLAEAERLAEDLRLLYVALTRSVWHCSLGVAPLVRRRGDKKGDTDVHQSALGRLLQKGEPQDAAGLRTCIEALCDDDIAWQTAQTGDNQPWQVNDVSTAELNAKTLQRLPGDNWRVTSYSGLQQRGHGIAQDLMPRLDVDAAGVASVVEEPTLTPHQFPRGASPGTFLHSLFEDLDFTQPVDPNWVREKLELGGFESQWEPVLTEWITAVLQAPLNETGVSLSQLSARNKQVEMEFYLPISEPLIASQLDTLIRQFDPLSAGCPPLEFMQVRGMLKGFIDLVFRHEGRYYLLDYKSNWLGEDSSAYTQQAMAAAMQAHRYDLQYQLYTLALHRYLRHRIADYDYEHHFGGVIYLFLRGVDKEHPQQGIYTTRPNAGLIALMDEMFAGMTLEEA
# [7] = target: T3, Histone-lysine N-methyltransferase NSD2 (Homo sapiens, UniProt O96028); type: biochemical
# T3 sequence (O96028 whole entry): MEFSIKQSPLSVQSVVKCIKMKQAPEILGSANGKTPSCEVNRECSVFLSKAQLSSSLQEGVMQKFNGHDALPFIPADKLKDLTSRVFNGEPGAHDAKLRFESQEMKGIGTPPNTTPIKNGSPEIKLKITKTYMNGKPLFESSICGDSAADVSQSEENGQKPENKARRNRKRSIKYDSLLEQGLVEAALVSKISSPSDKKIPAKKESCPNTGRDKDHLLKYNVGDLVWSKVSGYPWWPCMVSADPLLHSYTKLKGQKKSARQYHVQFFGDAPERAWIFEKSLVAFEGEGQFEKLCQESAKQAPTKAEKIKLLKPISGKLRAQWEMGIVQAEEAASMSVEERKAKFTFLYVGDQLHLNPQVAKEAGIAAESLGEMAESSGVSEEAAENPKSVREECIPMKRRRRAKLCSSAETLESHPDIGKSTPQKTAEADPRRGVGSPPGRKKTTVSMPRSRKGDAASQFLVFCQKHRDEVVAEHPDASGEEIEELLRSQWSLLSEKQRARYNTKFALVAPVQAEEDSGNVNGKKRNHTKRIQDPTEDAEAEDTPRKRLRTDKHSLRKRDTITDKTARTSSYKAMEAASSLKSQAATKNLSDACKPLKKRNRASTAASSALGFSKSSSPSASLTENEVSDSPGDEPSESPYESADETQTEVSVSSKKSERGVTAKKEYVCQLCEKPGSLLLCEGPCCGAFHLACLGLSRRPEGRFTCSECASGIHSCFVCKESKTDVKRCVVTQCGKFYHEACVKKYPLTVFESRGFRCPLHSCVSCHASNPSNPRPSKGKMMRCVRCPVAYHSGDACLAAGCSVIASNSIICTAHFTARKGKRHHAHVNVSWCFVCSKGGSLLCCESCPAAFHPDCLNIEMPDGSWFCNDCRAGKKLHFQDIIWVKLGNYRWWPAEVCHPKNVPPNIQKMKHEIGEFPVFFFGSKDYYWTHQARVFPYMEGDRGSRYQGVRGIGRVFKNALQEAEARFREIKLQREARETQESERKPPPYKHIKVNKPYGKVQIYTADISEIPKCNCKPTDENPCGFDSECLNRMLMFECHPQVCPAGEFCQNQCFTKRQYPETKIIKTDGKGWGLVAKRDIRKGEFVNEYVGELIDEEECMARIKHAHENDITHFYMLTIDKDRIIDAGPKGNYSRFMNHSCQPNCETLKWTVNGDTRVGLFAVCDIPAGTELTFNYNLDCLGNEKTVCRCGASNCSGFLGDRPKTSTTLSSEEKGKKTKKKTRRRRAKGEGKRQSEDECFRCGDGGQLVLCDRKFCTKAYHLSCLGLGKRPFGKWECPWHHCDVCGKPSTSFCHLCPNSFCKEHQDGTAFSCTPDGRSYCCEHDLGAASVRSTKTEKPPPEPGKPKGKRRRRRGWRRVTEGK
# [8] = target: Nucleotide-binding oligomerization domain-containing protein 1 (Homo sapiens, UniProt Q9Y239); test: NOD1 signaling inhibitors, SAR follow-up, revised (AID 2333); type: functional
# [9] = system: HEK293; test: cells; conditions: Homo sapiens
# [10] = target: Tumor necrosis factor (Homo sapiens, UniProt P01375); test: TNFa-triggered NF-kB activation inhibitors, SAR follow-up, cell-based, revised (AID 2337); type: functional
# Sequence of Tumor necrosis factor (P01375 whole entry): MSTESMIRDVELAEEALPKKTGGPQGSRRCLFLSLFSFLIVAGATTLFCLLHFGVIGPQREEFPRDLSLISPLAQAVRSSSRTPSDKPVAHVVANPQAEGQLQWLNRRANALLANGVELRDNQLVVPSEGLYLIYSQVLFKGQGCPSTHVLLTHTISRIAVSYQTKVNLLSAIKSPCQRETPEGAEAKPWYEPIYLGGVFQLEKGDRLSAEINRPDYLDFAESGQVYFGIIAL
# [11] = cytotoxicity toward DRD oncogenic fibroblasts, dose response, cell-based, non-viral oncogenic, luminescence (AID 1934); type: functional; conditions: Homo sapiens
# [12] = target: T4, Heat shock factor protein 1 (Mus musculus, UniProt P38532); test: inhibition of MG132-induced HSE-luciferase signal, confirmation, cell-based, NIH3T3, luminescence, dose retest (AID 2382); type: functional;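 also: NIH3T3 fibroblasts with HSF1-driven luciferase reporter stressed by proteasome inhibitor MG132; luminescence from HSF1-driven luciferase expression after 8 hours of MG132 stress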
# T4 sequence (P38532 whole entry): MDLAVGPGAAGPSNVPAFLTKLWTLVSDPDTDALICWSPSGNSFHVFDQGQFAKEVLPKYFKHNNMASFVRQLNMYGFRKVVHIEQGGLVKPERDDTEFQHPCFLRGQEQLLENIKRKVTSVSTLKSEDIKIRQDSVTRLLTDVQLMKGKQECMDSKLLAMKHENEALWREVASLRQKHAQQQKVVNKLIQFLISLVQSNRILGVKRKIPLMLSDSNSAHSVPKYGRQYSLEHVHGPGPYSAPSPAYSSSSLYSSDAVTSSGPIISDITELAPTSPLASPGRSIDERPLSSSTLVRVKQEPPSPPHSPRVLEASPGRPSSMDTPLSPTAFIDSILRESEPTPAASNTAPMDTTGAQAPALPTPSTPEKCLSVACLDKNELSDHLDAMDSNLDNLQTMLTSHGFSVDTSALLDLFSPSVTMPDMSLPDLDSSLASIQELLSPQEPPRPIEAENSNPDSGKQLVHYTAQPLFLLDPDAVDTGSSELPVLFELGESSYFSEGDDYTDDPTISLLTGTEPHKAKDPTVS
# [13] = system: Streptococcus sp. 'group A'; test: growth inhibition of control SK(-) GAS strain, dose response, counter-screen for streptokinase expression inhibitor project, luminescence, kanamycin, BacTiterGlo, confirmation (AID 1900); type: functional, organism-based
# [14] = C. albicans growth with fluconazole, confirmation, fluorescence, retest (AID 2467); type: functional, cell-based
# [15] = system: HEK293; test: cells; type: functional, cell-based; conditions: Homo sapiens
# [16] = system: HEK293; test: NOD2 signaling inhibitors in MDP-stimulated cells, cell-based, uHTS, luminescence (AID 2001); type: functional; conditions: Homo sapiens
# [17] = cells; type: functional, cell-based
# [18] = inhibitors of firefly luciferase expression or activity, dose response, H4 neuroglioma cells, luminescence (AID 1990); type: functional, cell-based
# [19] = system: HEK293; test: NOD1 signaling inhibitors, primary screen, cell-based, luminescence, uHTS (AID 1578); type: functional; conditions: Homo sapiens
# [20] = target: T5, Streptokinase A (Streptococcus pyogenes serotype M1, UniProt P10520); test: S. pyogenes streptokinase expression inhibitors, potency, dose response, plasminogen activation absorbance, OD405 (AID 1914); type: functional, Streptococcus pyogenes M1 GAS;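 also: secreted streptokinase activity via plasminogen activation per viability signal from cell pellet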
# T5 sequence (P10520 whole entry): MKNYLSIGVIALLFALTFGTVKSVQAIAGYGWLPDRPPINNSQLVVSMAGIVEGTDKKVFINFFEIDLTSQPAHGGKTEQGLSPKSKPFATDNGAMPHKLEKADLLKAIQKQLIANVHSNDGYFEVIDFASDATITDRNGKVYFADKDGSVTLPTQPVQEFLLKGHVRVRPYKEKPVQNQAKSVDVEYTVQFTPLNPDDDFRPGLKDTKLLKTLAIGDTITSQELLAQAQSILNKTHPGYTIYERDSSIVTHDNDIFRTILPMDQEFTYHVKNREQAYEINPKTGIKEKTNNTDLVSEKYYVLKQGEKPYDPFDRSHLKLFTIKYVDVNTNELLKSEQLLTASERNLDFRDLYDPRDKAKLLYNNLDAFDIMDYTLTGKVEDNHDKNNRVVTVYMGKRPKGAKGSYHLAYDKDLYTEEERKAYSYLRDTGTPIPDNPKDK
# [21] = NIH-3T3 fibroblast cytotoxicity, dose response, cytotoxicity control, cell-based, fluorescence, Alamar Blue, secondary assay (AID 2327); type: functional;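 also: NIH-3T3 mouse fibroblasts cultured with fluconazole at 8 µg/mL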
# [22] = system: HEK293; test: cells; type: functional, cell-based; conditions: Homo sapiens; remark: listed apart in the source
# [23] = system: INS1; test: beta cell apoptosis inhibitors, cytokine rescue, dose response, luminescence, retest (AID 449756); type: functional, cell-based; conditions: Rattus norvegicus;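 also: cell death triggered by IL-1 beta plus TNF-alpha plus IFN-gamma mixture; protective hits raise ATP signal compared with cytokine alone wells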
# [24] = system: BJ; test: cytotoxicity toward Ras-transformed BJeLR fibroblasts, dose response, cell-based, alamar blue fluorescence, cherrypicked samples (AID 2631); type: functional; conditions: Homo sapiens;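 also: confirmatory dose-response assay in RAS-dependent BJ fibroblasts engineered with TERT, LT and ST, with cytotoxicity read by fluorescence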
# [25] = Luminescence-based dose response cell-based high throughput screening assay for cytotoxic compounds using the IEC-6 intestinal epithelial cell line. [Related pubchem assays: 1858 (Summary AID.), 1825 (Counterscreen.), 1907 (Confirmation screen.)]; type: functional
# [26] = Luminescence Cell-Based Dose Response HTS to Identify Inhibitors of 5'UTR Stem-Loop Driven Prion Protein mRNA Translation in H4 Neuroglioblastoma Cells. [Related pubchem assays: 1827 (Project Summary), 1813 (Primary HTS)]; type: functional
# [27] = system: BJ; test: cells; type: functional, cell-based; conditions: Homo sapiens
# [28] = system: BJ; test: cytotoxicity toward BJ-TERT fibroblasts, dose response, cell-based, RAS-independent, luminescence (AID 1933); type: functional; conditions: Homo sapiens
# [29] = system: BJ; test: cytotoxicity toward BJ-TERT-LT-ST fibroblasts, dose response, cell-based, RAS-independent, luminescence (AID 1935); type: functional; conditions: Homo sapiens;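 also: BJ fibroblasts immortalized with TERT plus LT and ST oncogenes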
# [30] = cells; type: functional, cell-based; remark: listed apart in the source
# [31] = target: Nucleotide-binding oligomerization domain-containing protein 2 (Homo sapiens, UniProt Q9HC29); test: NOD2 signaling inhibitors, cell-based, luminescence, uHTS, HEK293 (AID 1566); type: functional
# [32] = inhibitors of SNCA 5'UTR-driven reporter translation, confirmation, H4 neuroglioma cells, luminescence (AID 1988); type: functional, cell-based
# [33] = target: Heat shock protein HSP 90-alpha (Homo sapiens, UniProt P07900); type: functional, organism-based
# [34] = system: Streptococcus; test: Group A Streptococcus viability loss, dose response, counter-screen for streptokinase expression inhibitor project, luminescence, BacTiterGlo (AID 1915); type: functional, organism-based;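 also: potency for reduction of bacterial viability or growth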
structure (smiles),measurement,setting,value
O=c1c(O[C@@H]2O[C@H](CO)[C@@H](O)[C@H](O)[C@H]2O)c(-c2ccc(O)c(O)c2)oc2cc(O)cc(O)c12 [ISOQUERCETIN],IC50,[1],14 µM (active)
same,IC50,[2],8.96 µM (active)
same,IC50,[3],1.66 µM (active)
same,IC50,[4],5.25 µM (active)
Cc1ccc(NC(=O)Cn2cnc3ccccc32)cc1C,IC50,[5],> 119 µM (inactive)
same,IC50,[6],> 119 µM (inactive)
CN1C(=O)NC(=O)/C(=C/c2ccc([N+](=O)[O-])o2)C1=O,AC50,[7],15.4 µM (active)
same,IC50,[1],> 100 µM (inactive)
same,IC50,[2],> 100 µM (inactive)
same,IC50,[3],43.8 µM (active)
O=C(CSc1nc(O)c2c(-c3ccccc3)csc2n1)NC1CCCCC1,IC50,[8],> 20 µM (inactive)
same,IC50,[9],> 20 µM (inactive)
same,IC50,[10],> 20 µM (inactive)
Cc1ccc(C(C)C)c(OCc2ccc(C(=O)N/N=C/c3cccc(O)c3O)cc2)c1,IC50,[5],> 119 µM (inactive)
same,EC50,[11],4.88 µM (active)
same,EC50,[12],1.24 µM (active)
same,IC50,[6],> 119 µM (inactive)
same,EC50,[13],1.87 µM (active)
same,EC50,[14],0.928 µM (active)
same,IC50,[15],1.16 µM (active)
same,IC50,[16],> 20 µM (inactive)
same,EC50,[17],> 350 µM (not active)
same,EC50,[18],0.54 µM (active)
same,EC50,[19],> 20 µM (inactive)
same,EC50,[20],> 150 µM (not active)
same,EC50,[21],3.17 µM (active)
same,IC50,[22],> 20 µM (inactive)
same,AC50,[23],0.832 µM (active)
same,EC50,[24],0.533 µM (active)
same,IC50,[25],1.67 µM (active)
same,EC50,[26],0.979 µM (active)
same,EC50,[27],2.58 µM (active)
same,EC50,[28],9.95 µM (active)
same,EC50,[29],7.23 µM (active)
same,EC50,[30],6.18 µM (active)
same,EC50,[31],> 20 µM (inactive)
same,EC50,[32],0.976 µM (active)
same,AC50,[33],4.01 µM (active)
same,EC50,[34],5.32 µM (active)
